According to the Kinase Knowledgebase extract (Sharma et al. 2016):

Columns and labels:
EGFR (mouse) = EGFR (mouse) (UniProt P00533); conditions: mk
EGFR = EGFR (UniProt P00533)
Chain of EGFR (P00533 whole entry, looked up): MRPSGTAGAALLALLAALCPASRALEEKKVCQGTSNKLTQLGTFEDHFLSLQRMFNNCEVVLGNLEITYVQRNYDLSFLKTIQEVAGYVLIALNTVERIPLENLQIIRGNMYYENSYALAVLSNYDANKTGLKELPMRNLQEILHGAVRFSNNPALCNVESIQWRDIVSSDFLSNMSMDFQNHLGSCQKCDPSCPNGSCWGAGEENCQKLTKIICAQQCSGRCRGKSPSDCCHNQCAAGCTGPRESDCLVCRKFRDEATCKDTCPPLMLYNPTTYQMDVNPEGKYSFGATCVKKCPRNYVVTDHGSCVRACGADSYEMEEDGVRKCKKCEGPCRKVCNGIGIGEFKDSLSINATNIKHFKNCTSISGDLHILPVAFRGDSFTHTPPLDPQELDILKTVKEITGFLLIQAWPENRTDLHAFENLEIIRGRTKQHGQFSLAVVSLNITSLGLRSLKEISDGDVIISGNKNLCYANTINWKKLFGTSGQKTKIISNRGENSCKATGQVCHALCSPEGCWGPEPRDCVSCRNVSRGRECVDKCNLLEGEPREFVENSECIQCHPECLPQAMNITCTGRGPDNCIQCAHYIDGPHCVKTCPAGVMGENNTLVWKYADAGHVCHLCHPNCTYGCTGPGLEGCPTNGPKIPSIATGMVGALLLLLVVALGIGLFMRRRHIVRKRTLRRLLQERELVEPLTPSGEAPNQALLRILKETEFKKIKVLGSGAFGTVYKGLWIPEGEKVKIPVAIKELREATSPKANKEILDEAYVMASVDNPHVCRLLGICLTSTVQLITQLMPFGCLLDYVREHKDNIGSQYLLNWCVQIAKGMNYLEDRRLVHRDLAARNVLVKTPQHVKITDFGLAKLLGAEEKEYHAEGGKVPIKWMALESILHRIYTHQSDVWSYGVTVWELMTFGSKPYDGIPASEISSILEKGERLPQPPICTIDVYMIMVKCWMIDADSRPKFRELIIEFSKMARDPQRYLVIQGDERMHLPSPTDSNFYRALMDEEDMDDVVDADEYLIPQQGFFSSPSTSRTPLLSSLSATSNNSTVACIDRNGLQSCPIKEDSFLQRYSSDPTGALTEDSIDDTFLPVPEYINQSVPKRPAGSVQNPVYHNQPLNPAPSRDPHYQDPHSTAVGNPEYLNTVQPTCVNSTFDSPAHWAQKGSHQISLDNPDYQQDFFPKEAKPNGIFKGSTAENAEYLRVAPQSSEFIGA

Row | SMILES | IC50 (EGFR (mouse)) [µM] | IC50 (EGFR) [µM]
1 | O=C1c2cc(O)cc(O)c2C(=O)c2c1cc(O)c(CO)c2O | 10 | 6.7
2 | O=C1c2cc(O)cc(O)c2C(=O)c2c1cc(O)c(C1CCOC1=O)c2O (centres undefined) | 35 | 11
3 | CC(=O)CCC(C(=O)O)c1c(O)cc2c(c1O)C(=O)c1c(O)cc(O)cc1C2=O (centres undefined) | > 50 | 21
4 | O=C1c2cc(O)cc(O)c2C(=O)c2c1cc(O)c(C(CO)CCO)c2O (centres undefined) | 22 | 21
5 | COC(=O)C(CCC(C)=O)c1c(O)cc2c(c1O)C(=O)c1c(O)cc(O)cc1C2=O (centres undefined) | 28 | 17
6 | O=C1c2cc(O)cc(O)c2C(=O)c2c1cc(O)c(C(CCO)C(=O)O)c2O (centres undefined) | 16 | 10.5
7 | C[C@]12CC[C@@H](CO1)c1c(cc3c(c1O)C(=O)c1c(O)cc(O)cc1C3=O)O2 | 18 | 38
